Measurements: ChEMBL document CHEMBL3585293, “Design, antiviral and cytostatic properties of isoxazolidine-containing amonafide analogues” (Bioorg Med Chem, 2015)

Test system: Vaccinia virus
Assay: Antiviral activity against Vaccinia virus infected in HEL cells assessed as reduction of virus-induced cytopathogenicity
Assay type: functional, organism-based
Details: Orthopoxvirus vaccinia

Row | SMILES | EC50 [µM]
1 | CCOP(=O)(OCC)[C@@H]1C[C@@H](C(=O)Nc2cc3c4c(cccc4c2)C(=O)N(CCN2CCCC2)C3=O)ON1C (relative stereo) | > 45
2 | CCOP(=O)(OCC)[C@@H]1C[C@H](C(=O)Nc2cc3c4c(cccc4c2)C(=O)N(CCN(C)C)C3=O)ON1C (racemic) | > 45
3 | O=c1[nH]c(=O)n([C@H]2C[C@H](O)[C@@H](CO)O2)cc1/C=C/Br [BRIVUDINE] | 17
4 | CCOP(=O)(OCC)[C@@H]1C[C@@H](C(=O)Nc2cc3c4c(cccc4c2)C(=O)N(CCN(C)C)C3=O)ON1C (racemic) | > 45
5 | Nc1nc2c(ncn2COC(CO)CO)c(=O)[nH]1 [GANCICLOVIR] | > 100
6 | Nc1nc2c(ncn2COCCO)c(=O)[nH]1 [ACYCLOVIR] | > 250
7 | Nc1ccn(C[C@@H](CO)OCP(=O)(O)O)c(=O)n1 [CIDOFOVIR] | 22
8 | CCOP(=O)(OCC)[C@@H]1C[C@H](C(=O)Nc2cc3c4c(cccc4c2)C(=O)N(CCN2CCCC2)C3=O)ON1C (racemic) | 50
